Reference: patent publication EP3344255B1 (priority 2016, dated 2017)
Like-named read-outs stand apart in the source and are kept apart here.

Columns and labels:
Format in all cases: cell-based, Acinetobacter baumannii
[1] = system: A.baumannii bacteria with resistance to colistin; assay: Colistin gradient test (E-test) on Mueller Hinton Agar with and without methylene blue
Procedure: (§1) Firstly, colistin-susceptible A.baumannii strains obtained from the same passage were subcultured on media (Mueller Hinton Agar) containing 14 mcg/ml methylene blue and without methylene blue and colistin gradient test (E-test) strips were placed on them.
Later, the same tests were performed on A.baumannii bacteria with resistance to colistin. While there was growth in the medium without methylene blue (Mueller Hinton Agar), there was no growth in the medium containing methylene blue. […] These bacterial varieties with resistance to colistin were tested based on species with different levels of MIC (minimum inhibitory concentrations) for colistin. […] In other words, it's understood these bacteria were inhibited. […] The probable cause of this reduction is that those with MIC values more than 0.5 mcg/ml in the bacterial population were selectively killed by methylene blue. […] However, the inhibition rate for strains with high MIC value (like 32 mcg/ml) was higher than the inhibition rate for strains with low MIC value (like 4-8 mcg/ml). In other words, the susceptiblity to methylene blue is proportional to the colistin resistance levels of colistin-resistant A.baumannii bacteria.
These effects of inhibition of colistin-resistant A.baumannii bacteria by methylene blue are clearly understood from the appearance on MHA (Mueller Hinton Agar) media. Image 1 and 2 provide the appearance of A.baumannii strains with homogeneous resistance to colistin on MHA (Mueller Hinton Agar) media. […] Images 3 and 4 provide images of heteroresistant A.baumannii strains with resistance to colistin on MHA.

[2] = system: colistin-susceptible A.baumannii strains; assay: as above
Text: as §1

[3] = system: colistin-susceptible A.baumannii strains; assay: Growth on Mueller Hinton Agar with and without methylene blue; settings: 14 mcg/ml methylene blue in Mueller Hinton Agar
Text: as §1

[4] = system: A.baumannii bacteria with resistance to colistin
Procedure: as §1
Later, the same tests were performed on A.baumannii bacteria with resistance to colistin. […] These bacterial varieties with resistance to colistin were tested based on species with different levels of MIC (minimum inhibitory concentrations) for colistin.

| Compound | MIC ([1]; 14 mcg/ml methylene blue on MHA, heteroresistant strain, outer zone (MIC 2 mcg/ml before)) | MIC ([1]; MHA without methylene blue, heteroresistant strain, internal zone (Image 3)) | MIC ([1]; MHA without methylene blue, heteroresistant strain, outer zone (Image 3)) | MIC ([1]; MHA without methylene blue, strain with homogeneous resistance to colistin (Image 1)) | MIC (minimum inhibitory concentration) ([1]; with methylene blue, bacteria with low levels of colistin resistance (MIC 1 or 3 mcg/ml before)) | MIC (minimum inhibitory concentration) ([1]; without methylene blue, bacteria with high levels of colistin resistance) | regression of colistin MIC ([2]; medium containing methylene blue vs without, colistin susceptible strains) | growth inhibition [3] | growth inhibition ([4]; 14 mcg/ml methylene blue on MHA, heteroresistant strain, internal zone with colistin MIC 32 mcg/ml) | growth inhibition ([4]; 14 mcg/ml methylene blue on MHA, homogeneously resistant strain with colistin MIC 32 mcg/ml (Image 2)) | growth ([4]; medium containing methylene blue (14 mcg/ml), colistin resistant bacteria, growth in medium without methylene blue) | growth inhibition ([4]; methylene blue medium, bacteria with high levels of colistin resistance (MIC value 32 mcg/ml)) | growth inhibition ([4]; methylene blue medium, bacteria with low levels of colistin resistance (MIC value 1 or 3 mcg/ml)) | inhibitory effect on bacterial subpopulations ([4]; methylene blue solution, all subpopulations with colistin MIC value above 0.5 mcg/ml) | increase of susceptibility to colistin ([2]; effect of methylene blue, strains with colistin MIC values of 0.5 mcg/ml or less) | susceptibility of A.baumannii strain to colistin ([2]; medium containing 14 mcg/ml methylene blue, colistin susceptible strains) |
| --- | --- | --- | --- | --- | --- | --- | --- | --- | --- | --- | --- | --- | --- | --- | --- | --- |
| Colistin (polymyxin E) | 0.5 µg/mL | 32 µg/mL | 2 µg/mL | 32 µg/mL | 0.5 µg/mL | 32 µg/mL | ~0.5 µg/mL |  |  |  |  |  |  |  |  |  |
| CN(C)c1ccc2nc3ccc(=[N+](C)C)cc-3sc2c1 [methylene blue] |  |  |  |  |  |  |  | did not inhibit growth | totally inhibited | completely inhibited | no growth | completely stopped growth | did not completely stop growing | inhibitory effects | no increased susceptibility | slightly increased |
